Data as given in ChEMBL document CHEMBL5634145, “Discovery of novel amidobenzimidazole derivatives as orally available small molecule modulators of stimulator of interferon genes for cancer immunotherapy” (Eur J Med Chem, 2023).

Experiments:
[1] = Cytotoxicity against wild type human THP1-Dual cells assessed as cell viability incubated for 24 hrs by CellTiter 96 aqueous one solution assay relative to control; assay type: toxicity, cell-based; design: concentration or dose not given beside the values; details: read-out: Activity
[2] = Cytotoxicity against human THP1-Dual KO-STING cells assessed as cell viability incubated for 24 hrs by CellTiter 96 aqueous one solution assay relative to control; assay type: toxicity, cell-based; design: concentration or dose not given beside the values; details: read-out: Activity
THP1-Dual = test: Cytotoxicity against human THP1-Dual cells assessed as reduction in cell viability at 0 to 50 uM incubated for 24 hrs by CellTiter 96 aqueous one solution assay; assay type: toxicity, cell-based; details: dose 0-50 µM
RAW264.7 = test: Cytotoxicity against mouse RAW264.7 cells assessed as reduction in cell viability at 0 to 80 uM incubated for 24 hrs by CellTiter 96 aqueous one solution assay; assay type: toxicity, cell-based; details: raw264.7, 24 h, dose 0-80 µM
Cytochrome P450 1A2 = target: T1, Cytochrome P450 1A2 (Homo sapiens, UniProt P05177); test: Inhibition of CYP1A2 in human liver microsomes using phenacetin as substrate preincubated for 5 min followed by substrate and NADPH addition and measured after 20 mins by LC-MS/MS analysis; assay type: ADME, Microsome
T1 sequence (P05177 whole entry): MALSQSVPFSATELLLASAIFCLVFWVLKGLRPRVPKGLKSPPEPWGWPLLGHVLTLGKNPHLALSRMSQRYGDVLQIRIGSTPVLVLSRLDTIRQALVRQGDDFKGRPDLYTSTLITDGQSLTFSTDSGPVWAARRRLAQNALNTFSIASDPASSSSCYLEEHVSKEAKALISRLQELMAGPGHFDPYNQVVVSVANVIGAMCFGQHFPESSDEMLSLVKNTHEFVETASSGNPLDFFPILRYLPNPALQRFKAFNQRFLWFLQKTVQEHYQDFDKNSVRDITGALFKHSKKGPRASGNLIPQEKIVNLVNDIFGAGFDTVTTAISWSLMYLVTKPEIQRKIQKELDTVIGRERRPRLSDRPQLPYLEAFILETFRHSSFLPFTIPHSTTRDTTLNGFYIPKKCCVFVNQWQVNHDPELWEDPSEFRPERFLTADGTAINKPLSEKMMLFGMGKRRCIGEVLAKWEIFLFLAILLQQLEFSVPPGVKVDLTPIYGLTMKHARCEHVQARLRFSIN

Cytochrome P450 2C9 = Cytochrome P450 2C9 (Homo sapiens, UniProt P11712); test: Inhibition of CYP2C9 in human liver microsomes using tolbutamide as substrate preincubated for 5 min followed by substrate and NADPH addition and measured after 20 mins by LC-MS/MS analysis; assay type: ADME, Microsome
Cytochrome P450 2C19 = Cytochrome P450 2C19 (Homo sapiens, UniProt P33261); test: Inhibition of CYP2C19 in human liver microsomes using S-Mephenytoin as substrate preincubated for 5 min followed by substrate and NADPH addition and measured after 20 mins by LC-MS/MS analysis; assay type: ADME, Microsome
Cytochrome P450 2D6 = Cytochrome P450 2D6 (Homo sapiens, UniProt P10635); test: Inhibition of CYP2D6 in human liver microsomes using dextromethorphan as substrate preincubated for 5 min followed by substrate and NADPH addition and measured after 20 mins by LC-MS/MS analysis; assay type: ADME, Microsome
Cytochrome P450 3A4 = Cytochrome P450 3A4 (Homo sapiens, UniProt P08684); test: Inhibition of CYP3A4 in human liver microsomes using […] as substrate preincubated for 5 min followed by substrate and NADPH addition and measured after 20 mins by LC-MS/MS analysis; assay type: ADME, Microsome
[3] = target: Voltage-gated inwardly rectifying potassium channel KCNH2 (Homo sapiens, UniProt Q12809); test: Inhibition of hERG by non-electrophysiological analysis; assay type: toxicity
[4] = Metabolic stability at phase I in mouse liver microsomes assessed as remaining activity at 1 uM incubated for 30 mins in presence of NADPH by LC-MS/MS analysis; assay type: ADME, Microsome; details: read-out: Stability
[5] = Metabolic stability at phase I in human liver microsomes assessed as remaining activity at 1 uM incubated for 30 mins in presence of NADPH by LC-MS/MS analysis; assay type: ADME, Microsome; details: read-out: Stability
[6] = Stability in mouse plasma assessed as remaining activity at 5 uM incubated for 4 hrs by LC-MS/MS analysis; assay type: ADME, cell-free; details: read-out: Stability
[7] = Stability in human plasma assessed as remaining activity at 5 uM incubated for 4 hrs by LC-MS/MS analysis; assay type: ADME, cell-free; details: read-out: Stability
[8] = Plasma protein binding in mouse; assay type: ADME, cell-free; details: read-out: PPB (converted)
[9] = Plasma protein binding in human; assay type: ADME, cell-free; details: read-out: PPB (converted)
[10] = Half life in ICR mouse at 5 mg/kg, iv by LC-MS/MS analysis; assay type: ADME, organism-based; details: in vivo
[11] = Half life in ICR mouse at 20 mg/kg, po administered via oral gavage by LC-MS/MS analysis; assay type: ADME, organism-based; details: in vivo
[12] = Tmax in ICR mouse at 20 mg/kg, po administered via oral gavage by LC-MS/MS analysis; assay type: ADME, organism-based; details: in vivo
[13] = Cmax in ICR mouse at 20 mg/kg, po administered via oral gavage by LC-MS/MS analysis; assay type: ADME, organism-based; details: in vivo
[14] = Volume of distribution at steady state in ICR mouse at 5 mg/kg, iv by LC-MS/MS analysis; assay type: ADME, organism-based; details: in vivo, read-out: Vdss
[15] = Clearance in ICR mouse at 5 mg/kg, iv by LC-MS/MS analysis; assay type: ADME, organism-based; details: in vivo
[16] = AUClast in ICR mouse at 5 mg/kg, iv by LC-MS/MS analysis; assay type: ADME, organism-based; details: in vivo
[17] = AUClast in ICR mouse at 20 mg/kg, po administered via oral gavage by LC-MS/MS analysis; assay type: ADME, organism-based; details: in vivo
[18] = AUC (0 to infinity) in ICR mouse at 5 mg/kg, iv by LC-MS/MS analysis; assay type: ADME, organism-based; details: in vivo
[19] = AUC (0 to infinity) in ICR mouse at 20 mg/kg, po administered via oral gavage by LC-MS/MS analysis; assay type: ADME, organism-based; details: in vivo
[20] = Oral bioavailability in ICR mouse at 20 mg/kg administered via oral gavage by LC-MS/MS analysis; assay type: ADME, organism-based; details: in vivo
[21] = Toxicity in BALB/c mouse implanted with mouse 4T1 cells assessed as body weight loss at 16 mg/kg, po administrated every other day for 6 times and measured after 12 days; assay type: organism-based; details: in vivo, 288 h, time 12 day
[22] = target: Stimulator of interferon genes protein (Homo sapiens, UniProt Q86WV6); test: Agonist activity at STING in wild type human THP1-Dual cells assessed as increase in IRF-mediated immune response incubated for 24 hrs by QUANTI-Luc assay; assay type: cell-based
Stimulator of interferon genes protein, sequence (Q86WV6 whole entry): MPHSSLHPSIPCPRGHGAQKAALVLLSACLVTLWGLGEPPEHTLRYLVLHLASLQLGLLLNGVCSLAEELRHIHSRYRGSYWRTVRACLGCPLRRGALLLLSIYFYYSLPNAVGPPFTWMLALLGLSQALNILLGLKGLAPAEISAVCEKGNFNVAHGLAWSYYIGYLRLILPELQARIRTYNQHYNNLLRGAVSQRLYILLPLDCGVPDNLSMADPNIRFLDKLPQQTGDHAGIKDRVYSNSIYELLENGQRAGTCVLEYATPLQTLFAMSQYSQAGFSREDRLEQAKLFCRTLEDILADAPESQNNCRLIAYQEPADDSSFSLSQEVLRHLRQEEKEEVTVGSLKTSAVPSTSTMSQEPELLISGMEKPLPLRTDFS

Cytochrome P450 3A4, sequence (P08684 whole entry): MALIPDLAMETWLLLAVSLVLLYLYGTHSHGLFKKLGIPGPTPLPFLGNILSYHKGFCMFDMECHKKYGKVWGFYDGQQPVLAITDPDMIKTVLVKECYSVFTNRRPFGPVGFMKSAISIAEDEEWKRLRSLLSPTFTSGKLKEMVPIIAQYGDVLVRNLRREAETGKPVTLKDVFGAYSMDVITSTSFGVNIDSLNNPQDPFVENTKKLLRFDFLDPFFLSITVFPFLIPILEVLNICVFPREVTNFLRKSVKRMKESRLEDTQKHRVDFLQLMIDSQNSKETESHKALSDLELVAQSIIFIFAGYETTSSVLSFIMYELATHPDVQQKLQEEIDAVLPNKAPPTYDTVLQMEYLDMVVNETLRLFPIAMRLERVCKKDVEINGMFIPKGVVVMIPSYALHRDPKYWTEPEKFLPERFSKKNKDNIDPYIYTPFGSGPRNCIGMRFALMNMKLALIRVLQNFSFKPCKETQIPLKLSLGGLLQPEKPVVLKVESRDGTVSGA
Cytochrome P450 2C19, sequence (P33261 whole entry): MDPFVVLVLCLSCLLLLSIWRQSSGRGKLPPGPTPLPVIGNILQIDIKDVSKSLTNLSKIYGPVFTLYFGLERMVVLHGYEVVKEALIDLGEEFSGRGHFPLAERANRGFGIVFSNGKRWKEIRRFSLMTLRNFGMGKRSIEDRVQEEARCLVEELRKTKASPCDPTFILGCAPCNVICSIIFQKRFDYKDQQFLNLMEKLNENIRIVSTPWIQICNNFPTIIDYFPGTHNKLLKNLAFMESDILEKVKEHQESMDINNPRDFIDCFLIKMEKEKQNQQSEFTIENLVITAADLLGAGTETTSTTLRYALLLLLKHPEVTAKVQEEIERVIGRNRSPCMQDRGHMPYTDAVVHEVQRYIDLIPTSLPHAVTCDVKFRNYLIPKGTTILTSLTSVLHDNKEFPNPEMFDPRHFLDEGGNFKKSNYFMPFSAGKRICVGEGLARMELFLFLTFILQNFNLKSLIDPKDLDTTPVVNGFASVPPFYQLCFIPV
Cytochrome P450 2C9, sequence (P11712 whole entry): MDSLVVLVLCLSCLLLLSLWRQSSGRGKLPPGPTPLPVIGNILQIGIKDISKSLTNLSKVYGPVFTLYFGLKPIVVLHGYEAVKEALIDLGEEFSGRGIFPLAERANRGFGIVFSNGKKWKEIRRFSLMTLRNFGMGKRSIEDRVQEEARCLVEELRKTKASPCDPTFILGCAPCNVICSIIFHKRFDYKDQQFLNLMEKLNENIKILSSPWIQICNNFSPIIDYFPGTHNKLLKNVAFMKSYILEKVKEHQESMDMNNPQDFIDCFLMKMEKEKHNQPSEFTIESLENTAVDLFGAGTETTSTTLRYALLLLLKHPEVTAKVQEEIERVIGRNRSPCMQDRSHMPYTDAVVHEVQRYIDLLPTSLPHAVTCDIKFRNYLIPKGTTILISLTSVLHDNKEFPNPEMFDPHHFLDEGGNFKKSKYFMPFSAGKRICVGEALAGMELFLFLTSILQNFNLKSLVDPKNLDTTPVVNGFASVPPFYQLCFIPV
Voltage-gated inwardly rectifying potassium channel KCNH2, sequence (Q12809 whole entry): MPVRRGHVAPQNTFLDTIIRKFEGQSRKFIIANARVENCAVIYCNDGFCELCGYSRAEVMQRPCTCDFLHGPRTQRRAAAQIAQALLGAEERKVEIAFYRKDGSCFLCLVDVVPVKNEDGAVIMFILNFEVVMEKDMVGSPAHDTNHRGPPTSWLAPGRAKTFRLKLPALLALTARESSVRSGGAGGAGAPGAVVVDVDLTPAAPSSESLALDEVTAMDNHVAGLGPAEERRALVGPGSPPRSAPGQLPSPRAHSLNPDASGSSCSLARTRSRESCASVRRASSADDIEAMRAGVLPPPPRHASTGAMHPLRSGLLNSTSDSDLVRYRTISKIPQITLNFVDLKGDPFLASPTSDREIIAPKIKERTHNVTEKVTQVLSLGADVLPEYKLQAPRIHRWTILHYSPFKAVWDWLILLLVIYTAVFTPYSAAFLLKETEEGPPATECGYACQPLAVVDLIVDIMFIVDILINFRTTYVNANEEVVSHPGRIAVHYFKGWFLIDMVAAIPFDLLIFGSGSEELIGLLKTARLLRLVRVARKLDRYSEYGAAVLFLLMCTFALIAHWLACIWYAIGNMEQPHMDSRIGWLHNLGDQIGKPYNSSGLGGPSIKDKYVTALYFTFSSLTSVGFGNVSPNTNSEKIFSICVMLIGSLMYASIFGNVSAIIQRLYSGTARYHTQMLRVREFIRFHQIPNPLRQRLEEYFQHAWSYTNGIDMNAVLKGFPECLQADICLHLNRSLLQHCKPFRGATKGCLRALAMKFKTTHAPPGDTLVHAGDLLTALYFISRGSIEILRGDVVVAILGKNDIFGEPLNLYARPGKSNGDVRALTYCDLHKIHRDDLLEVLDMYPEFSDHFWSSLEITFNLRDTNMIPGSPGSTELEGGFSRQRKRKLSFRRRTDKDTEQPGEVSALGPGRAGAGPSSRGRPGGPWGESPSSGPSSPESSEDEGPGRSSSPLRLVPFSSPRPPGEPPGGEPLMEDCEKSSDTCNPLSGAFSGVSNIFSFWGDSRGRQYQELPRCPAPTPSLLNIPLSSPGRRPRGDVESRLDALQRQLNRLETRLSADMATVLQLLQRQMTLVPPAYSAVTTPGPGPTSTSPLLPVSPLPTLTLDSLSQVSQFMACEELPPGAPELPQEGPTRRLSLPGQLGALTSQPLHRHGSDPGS
Cytochrome P450 2D6, sequence (P10635 whole entry): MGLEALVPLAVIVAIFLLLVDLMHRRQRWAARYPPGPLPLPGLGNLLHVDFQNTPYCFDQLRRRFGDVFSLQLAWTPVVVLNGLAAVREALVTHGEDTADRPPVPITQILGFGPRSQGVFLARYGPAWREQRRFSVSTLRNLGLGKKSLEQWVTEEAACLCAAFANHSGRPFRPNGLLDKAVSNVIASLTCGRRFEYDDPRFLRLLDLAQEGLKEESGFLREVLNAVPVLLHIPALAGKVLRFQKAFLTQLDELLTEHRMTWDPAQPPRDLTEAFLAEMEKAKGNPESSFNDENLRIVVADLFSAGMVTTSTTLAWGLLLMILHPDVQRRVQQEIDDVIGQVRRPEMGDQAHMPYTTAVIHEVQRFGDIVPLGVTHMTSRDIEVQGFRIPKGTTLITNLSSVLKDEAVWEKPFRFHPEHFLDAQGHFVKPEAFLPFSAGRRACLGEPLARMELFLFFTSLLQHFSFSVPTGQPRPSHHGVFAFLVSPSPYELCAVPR

Cc1ccc(C(=O)Nc2nc3cc(C(N)=O)ccc3n2CCCCNC(=O)OC(C)(C)C)c(C)n1
viability at 24 h [1]: 112%
viability at 24 h [2]: 93.2%

Cc1ncccc1C(=O)Nc1nc2cc(C(N)=O)ccc2n1CCCN
viability at 24 h [1]: 105%
viability at 24 h [2]: 100%

CCn1nc(C)cc1C(=O)NCCCCn1c(NC(=O)c2cccnc2C)nc2cc(C(N)=O)ccc21
viability at 24 h [1]: 98.5%
viability at 24 h [2]: 105%

CC(C)(C)OC(=O)NCCCCn1c(NC(=O)c2ccc(C(F)(F)F)nc2)nc2cc(C(N)=O)ccc21
viability at 24 h [1]: 106%
viability at 24 h [2]: 108%

Cc1ncccc1C(=O)Nc1nc2cc(C(N)=O)ccc2n1CCCCNC(=O)OC(C)(C)C
viability at 24 h [1]: 99.4%
viability at 24 h [2]: 106%
Activity (THP1-Dual): Non-Toxic
Activity (RAW264.7): Non-Toxic
IC50 (Cytochrome P450 1A2): > 100 µM
IC50 (Cytochrome P450 2C9): 28.3 µM
IC50 (Cytochrome P450 2C19): 8.8 µM
IC50 (Cytochrome P450 2D6): 16.5 µM
IC50 (Cytochrome P450 3A4): 10.5 µM
IC50 [3]: > 100 µM
remaining at 0.5 h, 1 µM [4]: 18.1%
remaining at 0.5 h, 1 µM [5]: 27.9%
remaining at 4 h, 5 µM [6]: 99.5%
remaining at 4 h, 5 µM [7]: > 99.9%
fraction unbound [8]: 0.0624
fraction unbound [9]: 0.0211
half-life [10]: 11.2 h
half-life [11]: 13.3 h
Tmax [12]: 0.42 h
Cmax [13]: 110 ng/mL
Vd [14]: 11.7 L/kg
clearance [15]: 95.5 mL/min/kg
AUC(0-t) [16]: 880 ng·h/mL
AUC(0-t) [17]: 180 ng·h/mL
AUC(0-inf) [18]: 900 ng·h/mL
AUC(0-inf) [19]: 210 ng·h/mL
bioavailability [20]: 5.23%
Activity [21]: Non-Toxic

Cc1ncccc1C(=O)Nc1nc2cc(C(N)=O)ccc2n1CCCCn1c(NC(=O)c2cccnc2C)nc2cc(C(N)=O)ccc21
EC50 [22]: 18 µM
viability at 24 h [1]: 91%
viability at 24 h [2]: 118%

Cc1cncc(C(=O)Nc2nc3cc(C(N)=O)ccc3n2CCCCNC(=O)OC(C)(C)C)c1
viability at 24 h [1]: 90.7%
viability at 24 h [2]: 97.4%

CC(=O)NCCCCn1c(NC(=O)c2cccnc2C)nc2cc(C(N)=O)ccc21
viability at 24 h [1]: 99.7%
viability at 24 h [2]: 97.4%

CC(C)(C)OC(=O)NCCCCn1c(NC(=O)c2cccnc2)nc2cc(C(N)=O)ccc21
EC50 [22]: 42.1 µM
viability at 24 h [1]: 97.4%
viability at 24 h [2]: 93.3%

CC(C)(C)OC(=O)NCCCCn1c(NC(=O)c2ccccc2)nc2cc(C(N)=O)ccc21
viability at 24 h [1]: 82.1%
viability at 24 h [2]: 101%

Cc1ncccc1C(=O)Nc1nc2cc(C(N)=O)ccc2n1CCCCN
viability at 24 h [1]: 105%
viability at 24 h [2]: 98.5%

Cc1ncccc1C(=O)Nc1nc2cc(C(N)=O)ccc2n1CCCNC(=O)OC(C)(C)C
viability at 24 h [1]: 102%
viability at 24 h [2]: 93.6%

COc1cc(C(N)=O)cc2nc(NC(=O)c3cccnc3C)n(C/C=C/CNC(=O)OC(C)(C)C)c12
viability at 24 h [1]: 106%
viability at 24 h [2]: 97.5%

CC(C)(C)OC(=O)NCCCCn1c(NC(=O)c2cccnc2C(C)(C)C)nc2cc(C(N)=O)ccc21
viability at 24 h [1]: 91.6%
viability at 24 h [2]: 106%

Cc1ccc(C(=O)Nc2nc3cc(C(N)=O)ccc3n2CCCCNC(=O)OC(C)(C)C)cn1
viability at 24 h [1]: 89.3%
viability at 24 h [2]: 95.3%

Cc1ncccc1C(=O)Nc1nc2cc(C(N)=O)ccc2n1C
viability at 24 h [1]: 82.8%
viability at 24 h [2]: 105%
